Reference: patent US20240368230A1, “CELL-PENETRATING PEPTIDES COMPRISING MULTIPLE 5-MER ALPHA-HELIX FRAGMENTS AND USES THEREOF” (ArtProBio Co., Ltd., priority 2023, published 2024)
“Also recorded” adds a separate entry of the source. Where two headings read alike, the source gives them in different places. Blank lines part the entries; values can stand above or below the compound they belong to. Where a SMILES comes first, the peptide text is derived from it.

Columns and labels:
HeLa cells [1] = assay: Flow cytometry cellular uptake efficiency, HeLa; assay type: cell-based
Description: (§1) After washing with PBS, the cells were treated with the fluorescence-labeled peptide (sample) for 4 hours. Then, after washing twice with PBS, the cells were incubated with trypsin (1 mg/mL) for 15 minutes and the peptide bound to the cell surface was removed. The cells were centrifuged at 1,200 rpm for 5 minutes, washed twice with PBS and then suspended in a PBS buffer containing 10% non-enzymatic cell dissociation solution. The fluorescence intensity of the internalized peptide was measured using a BD LSR II flow cytometer (BD Biosciences, USA).
(§2) The cell-penetrating peptides (CPP10, CPP11 and Tat) were labeled with FAM (5 (6)-carboxyfluorescein) at the N-terminal. MFI stands for mean fluorescence intensity. Untreated cells were used as control groups (cell only). The cellular uptake efficiency refers to the degree of penetration into cells.
Flow cytometry was performed after treating Hela cells with the cell-penetrating peptide prepared in Example 11 (CPP11) of different concentrations (4 μM, 30 μM, 60 μM, 90 μM, 120 μM, 270 μM and 500 μM).

HCT116 cells = assay: Flow cytometry cellular uptake efficiency, HCT116; assay type: cell-based; settings: HCT116, 30 μM, FAM-labeled
Description: as §1, §2

293T cells = assay: Flow cytometry cellular uptake efficiency, 293T; assay type: cell-based; settings: 30 μM, FAM-labeled
Description: as §1, §2

BALB/c nude mice [2] = assay: In-vivo fluorescence imaging (IVIS) of living mice, targeting
Description: All animal experimental procedures including sample administration and euthanasia were performed in accordance with the strict guidelines of the Yonsei University Health System Institutional Animal Care and Use Committee. Female 7-week BALB/c nude mice were purchased from Orient Bio Company (Korea). Fluorescence-labeled peptide (sample) (10 mg/kg) was injected via the lateral tail vein of the mice. Fluorescence images were acquired at different times (0, 4, 8 and 12 hours) using an in-vivo imaging system (IVIS; PerkinElmer, USA) and the images were analyzed with the Living Image software (PerkinElmer).
Female 7-week-old BALB/c nude mice were injected IV (intravenously) with the cell-penetrating peptide prepared in Example 10 (CPP10) at 10 mg/kg or 1 mg/kg via the lateral tail vein and imaged using IVIS (in-vivo imaging system) (PerkinElmer, USA) 4 hours later. The images were analyzed with the Living Image software (PerkinElmer). The mice were analyzed from the top, bottom (belly) and side positions (FIG. 44A). Then, after administering the same volume of the cell-penetrating peptide prepared in Example 10 (CPP10) at 10 mg/kg via IV (intravenous) or IP (intraperitoneal) injection, the mice were imaged 4 hours later (FIG. 44B).
Next, female 7-week-old BALB/c nude mice were injected IV (intravenously) with the cell-penetrating peptide of Example 10 (CPP10), the cell-penetrating peptide of Example 11 (CPP11) or the cell-penetrating peptide of Example 14 (CPP11d) at 10 mg/kg via the lateral tail vein, and they were imaged 30 minutes and 6 hours later using IVIS (in-vivo imaging system) (PerkinElmer, USA). The images were analyzed with the Living Image software (PerkinElmer) (FIG. 44C). In FIGS. 44A and 44B, the cell-penetrating peptides were labeled with TAMRA (5 (6)-carboxytetramethylrhodamine). In FIG. 44C, the cell-penetrating peptides were labeled with FAM.
The images were analyzed with the Living Image software (PerkinElmer) (FIGS. 50 and 51).
The cell-penetrating peptide prepared in Example 11 (CPP11) was also administered at the same concentration and then analyzed by IVIS 1 hour later (FIG. 51). The cell-penetrating peptide was used after labeling with FAM.
4 hours later, the mice were imaged using IVIS (in-vivo imaging system) (PerkinElmer, USA) and the images were analyzed with the Living Image software (PerkinElmer) (FIG. 53).
The cell-penetrating peptide prepared in Example 11 (CPP11) was also administered at the same concentration and then analyzed by IVIS 1 hour later (FIG. 53). The cell-penetrating peptide was used after labeling with FAM.
Female 7-week-old BALB/c nude mice were injected IV (intravenously) with 200 μL of the cell-penetrating peptide of Example 11 (CPP11) or the existing cell-penetrating peptides (Rev ARM, Tat, penetratin and R8) at 5 mg/kg via the lateral tail vein. 4 hours later, the mice were imaged using IVIS (in-vivo imaging system) (PerkinElmer, USA) and the images were analyzed with the Living Image software (PerkinElmer) (FIGS. 54 and 55). The cell-penetrating peptides were used after labeling with FAM.

HeLa cells [3] = assay: Cytotoxicity analysis with WST-8 reagent; settings: 24 hours, various concentrations
Description: (§3) Cytotoxicity was analyzed using the WST-8 (5-(2,4-disulfophenyl)-3-(2-methoxy-4-nitrophenyl)-2-(4-nitrophenyl)-2H-tetrazolium, water-soluble tetrazolium). First, HeLa cells were inoculated onto a 96-well plate (5,000 cells/well) and cultured for 24 hours in a DMEM medium containing 10% FBS. After washing with PBS, the peptide (sample) of various concentrations was added to Opti-MEM. 24 hours later, the WST-8 reagent was added and incubation was conducted for 1 hour. Then, WST-8 formazan was quantified using a Victor X5 multilabel plate reader (Perkin Elmer, USA).

[4] = CD spectroscopy of cell-penetrating peptides (helicity); settings: for secondary structure / helix stabilization by CD: 10 mM potassium phosphate, pH 7.4, 20° C.
Description: The concentration of peptides/proteins was 5-20 μM in general. Spectra were obtained using a Jasco J-1500 CD spectrometer (JASCO, Japan) or a Chirascan CD spectrometer (Applied Photophysics, UK). Scanning was carried out using a cuvette with a path length of 1 mm. MRE (mean residue ellipticity) was calculated per amino acid residue.
The cell-penetrating peptides (CPP1 TO 13 and CPP11d) were dissolved respectively in 10 mM potassium phosphate. The analysis was performed under the condition of pH 7.4 and 20° C.

[5] = CD equilibrium thermal unfolding; assay type: physicochemical; settings: CD at 4-84° C., two-state coil-helix transition
Description: For the cell-penetrating peptide prepared in Example 11 (CPP11), CD spectra were measured under various temperature conditions (4° C., 20° C., 36° C., 52° C., 68° C. and 84° C.) to analyze thermal stability through equilibrium thermal unfolding.

HeLa cells [6] = assay: Cellular localization by CLSM; assay type: cell-based; settings: 10 μM FAM-labeled, 2 hours, DAPI
Description: A DMEM medium containing 10% FBS and an 8-well Lab-Tek II chamber slide (Thermo Fisher Scientific, USA) were prepared. […] […] The cultured cells were washed 5 times with PBS. The living cells were visualized using an LSM 880 confocal microscope (Carl Zeiss, Germany).
The cell-penetrating peptides were labeled with FAM.

BALB/c nude mice [7] = assay: IVIS imaging of extracted organs, head and cochlea after IV injection; assay type: in vivo
Description: After extracting major organs (ear, brain, heart, lung, liver, spleen and kidney) from the euthanized experimental animals, the tissues were imaged using IVIS (in-vivo imaging system) (PerkinElmer, USA) and the images were analyzed with the Living Image software (PerkinElmer).

IIB RNA = assay: UV melting analysis of IIB RNA and cRev-IIB complex; assay type: physicochemical, HIV-1; settings: 260 nm; cRev/IIB ratio 1; IIB RNA only as control
Description: UV melting experiments for free RNA (2 μM) and a protein-RNA complex (1:1 molar ratio) were conducted using an Agilent 8453 diode array UV-Vis spectrophotometer equipped with a Peltier temperature controller. Spectra were measured at 260 nm using a cuvette with a path length of 1 cm under the heating rate condition of 2° C./min. The measurement was repeated 3 times and the average was taken. Prior to the measurement, the RNA sample was heated at 90° C. for 2 minutes and then annealed on ice. The melting temperature (Tm) was calculated with the Origin software (OriginLab, USA) using a two-state or multi-state model.
A complex (cRev-IIB complex) was prepared by mixing the cRev prepared in Preparation Example 2 with IIB RNA and UV melting experiment was performed. The cRev/IIB ratio was 1. For the control group (IIB RNA only), only IIB RNA was used without cRev.

HeLa cells [8] = system: HeLa cells
Description: as §3

[9] = FAM-labeled, IV 10 mg/kg, 30 minutes and 6 hours
[10] = extracted organs, IV 10 mg/kg, 4 hours

in-vivo targeting site (BALB/c nude mice [2]; [9]): targeted the ear
Compound: C[C@H](NC(=O)[C@H](CCC(N)=O)NC(=O)C(C)(C)NC(=O)[C@H](C)NC(=O)C(C)(C)NC(=O)[C@H](CC(N)=O)NC(=O)[C@H](CCCNC(=N)N)NC(=O)[C@H](CCCNC(=N)N)NC(=O)[C@H](C)NC(=O)[C@H](CCC(N)=O)NC(=O)C(C)(C)NC(=O)[C@H](C)NC(=O)C(C)(C)NC(=O)[C@H](CC(N)=O)NC(=O)[C@H](CCCNC(=N)N)NC(=O)[C@H](CCCNC(=N)N)NC(=O)[C@H](C)NC(=O)[C@H](CCC(N)=O)NC(=O)C(C)(C)NC(=O)[C@H](C)NC(=O)C(C)(C)N)C(=O)N[C@@H](CCCNC(=N)N)C(=O)N[C@@H](CCCNC(=N)N)C(=O)N[C@@H](CC(N)=O)C(=O)NC(C)(C)C(=O)N[C@@H](C)C(=O)NC(C)(C)C(N)=O [CPP10] (HELM PEPTIDE1{[Aib].A.[Aib].Q.A.R.R.N.[Aib].A.[Aib].Q.A.R.R.N.[Aib].A.[Aib].Q.A.R.R.N.[Aib].A.[Aib].[am]}$$$$V2.0; N-terminus assumed)
cell-penetrating ability compared with Tat (HeLa cells [1]; HeLa, 30 μM, FAM-labeled): significantly superior
cell-penetrating ability compared with Tat (HCT116 cells): significantly superior
cell-penetrating ability compared with Tat (293T cells): significantly superior
targeting efficiency IV versus IP (BALB/c nude mice [2]; TAMRA-labeled, 10 mg/kg, 4 hours): higher targeting efficiency when administered by IV injection rather than by IP injection
in-vivo fluorescence distribution (BALB/c nude mice [2]; TAMRA-labeled, IV tail vein, 10 mg/kg or 1 mg/kg, 4 hours): bright fluorescence was observed in the ear
cytotoxicity (WST-8) (HeLa cells [3]): hardly show cytotoxicity
secondary structure / helix stabilization by CD [4]: significantly higher than those of CPP8 and CPP9

melting temperature (CD thermal unfolding) [5]: 39.4 °C
in-vivo targeting site (BALB/c nude mice [2]; [9]): targeted the ear
time to accumulation in the ear (BALB/c nude mice [7]; IV 10 mg/kg): ≤ 4 h
accumulation rate in the brain (BALB/c nude mice [7]; [10]): very low
main target organ (BALB/c nude mice [7]; [10]): targets mainly the ear
secondary structure / helix stabilization by CD [4]: perfect α-helical structure
dependence of [θ]222/[θ]208 on concentration ([4]; 5-200 μM, 20° C.): not affected by concentration
Compound: C[C@H](NC(=O)[C@H](CCC(N)=O)NC(=O)C(C)(C)NC(=O)[C@H](C)NC(=O)C(C)(C)NC(=O)[C@H](CC(N)=O)NC(=O)[C@H](CCCNC(=N)N)NC(=O)[C@H](CCCNC(=N)N)NC(=O)[C@H](C)NC(=O)[C@H](CCC(N)=O)NC(=O)C(C)(C)NC(=O)[C@H](C)NC(=O)C(C)(C)NC(=O)[C@H](CC(N)=O)NC(=O)[C@H](CCCNC(=N)N)NC(=O)[C@H](CCCNC(=N)N)NC(=O)[C@H](C)NC(=O)[C@H](CCC(N)=O)NC(=O)C(C)(C)NC(=O)[C@H](C)NC(=O)C(C)(C)NC(=O)[C@H](CC(N)=O)NC(=O)[C@H](CCCNC(=N)N)NC(=O)[C@H](CCCNC(=N)N)NC(=O)[C@H](C)NC(=O)[C@H](CCC(N)=O)NC(=O)C(C)(C)NC(=O)[C@H](C)NC(=O)C(C)(C)N)C(=O)N[C@@H](CCCNC(=N)N)C(=O)N[C@@H](CCCNC(=N)N)C(=O)N[C@@H](CC(N)=O)C(=O)NC(C)(C)C(=O)N[C@@H](C)C(=O)NC(C)(C)C(N)=O [CPP11] (HELM PEPTIDE1{[Aib].A.[Aib].Q.A.R.R.N.[Aib].A.[Aib].Q.A.R.R.N.[Aib].A.[Aib].Q.A.R.R.N.[Aib].A.[Aib].Q.A.R.R.N.[Aib].A.[Aib].[am]}$$$$V2.0; N-terminus assumed)
cellular uptake efficiency relative to Tat (HeLa cells [1]; HeLa, 30 μM, 4 hours, FAM-labeled, MFI): ≥ 4 times
MFI / uptake efficiency versus concentration (HeLa cells [1]; Hela cells, 4-500 μM): uptake efficiency increases gradually with the concentration
cellular uptake efficiency relative to Tat (HCT116 cells; 4 hours, MFI): ≥ 4 times
cellular uptake efficiency relative to Tat (293T cells; 4 hours, MFI): ≥ 4 times
cellular localization (HeLa cells [6]): mainly located outside the nucleus
accumulation efficiency in the ear (BALB/c nude mice [2]; FAM-labeled, IV 5 mg/kg, 1 hour, compared with CPP14, 15 and 17): much higher accumulation efficiency in the ear
bioaccumulation (BALB/c nude mice [2]; FAM-labeled, IV 5 mg/kg, 4 hours, comparison with existing CPPs): accumulated in the ear tissue at a significantly high level
excretion route (BALB/c nude mice [7]; IV 10 mg/kg, 4 hours): excreted out of the body through the liver and kidneys
accumulation in the head (outside and inside) (BALB/c nude mice [7]; IV 10 mg/kg, 4 hours, versus PBS, 10 mg/kg): accumulated effectively in the facial area, especially in the ear, in large quantities; also recorded: accumulated deeply not only in the ear but also in the nose
accumulation in heart, lung and spleen (BALB/c nude mice [7]; [10]): not accumulated in the heart, lung and spleen tissues
accumulation in the inner ear (cochlea) (BALB/c nude mice [7]; separated cochlea, IV, versus PBS (w/o treatment)): significantly remarkable accumulation in the inner ear (cochlea)
cytotoxicity (WST-8) (HeLa cells [3]): hardly show cytotoxicity

Compound: GGACCUGGUAUGGGCGCAGCGCAAGCUGACGGUACAGGCCAGGUCC (listed as RNA, chemistry not given here) [IIB RNA, stem-loop IIB region of HIV-1 RRE RNA]
Tm (UV melting) (IIB RNA): 60.6 °C

in-vivo targeting site (BALB/c nude mice [2]; mouse, in vivo, iv, 10 mg/kg): targeted the ear
secondary structure / helix stabilization by CD [4]: perfect left-handed helical conformation
Compound: UaUgarrnUaUqarrnUaUqarrnUaUqarrnUaU [CPP11d]
cytotoxicity (WST-8) (HeLa cells [8]): hardly show cytotoxicity
